From US6080542A, “Plant peptide transport gene” (priority 1997, dated 2000)
Read-outs that look alike come from different tables or passages of the source. Where no end group is shown, it is not given here. Eth = ethionine

Assays:
ATPTR2Ap = assay: Uptake of L-leucyl-L-[3H]leucine and competition, PB1X-9B[pPTF4]; details: for competition for uptake of [3H]-dileucine: PB1X-9B[pPTF4], pH 5.5, dileucine and leucine at 100-fold; for uptake of radiolabeled dileucine: PB1X-9B transformed with pPTF4, compared with wild type, trifluoroacetic acid (TFA)
Procedure: The kinetics of ATPTR2A-mediated transport of peptides in yeast was evaluated by transforming pPTF4 into the S. cerevisiae peptide transport mutant, PB1X-9B and measuring the uptake of tritiated Leu-Leu dipeptide.
(§1) L-leucyl-L [^3 H]leucine trifluoroacetic acid (TFA) was synthesized by standard solution phase techniques (Naider, F. et al., J. Biol. Chem. 249:9-20 (1974)). Uptake of L-leucyl-L-[H]leucine was performed as by Island, M. D. et al (J. Bacteriol. 169:2132-2136 (1987)), with the following modifications. Cells were grown to late log phase (26×10^7 cells/ml) overnight in SC with 2% glucose, 1 mg/ml allantoin plus amino acids to supplement auxotrophic markers. To induce peptide transport. 5-15 ml from this culture was added to 100 ml fresh medium such that the density was 3.0×10^6 cells/ml. This culture was allowed to grow (approx. 2 hrs.) to a density of 6.0×10^6 cells/ml and then harvested by centrifugation. The pelleted cells were washed twice with 10 ml cold dH2 O and suspended in cold 2% glucose to a final concentration of 2×10^8 cells/ml and incubated at 30° C. for 15 min. 500 μl of cells were then added to an equal volume of reaction mixture (30° C.) and incubated at 30°-C. At 20, 40, 60, 90, and 120 sec. intervals, 190 μl portions were removed, filtered over filters (pore size, 0.45 μm; GN-6; Gelman Sciences, Inc., Ann Arbor, Mich.) and washed 2 times with 5 ml cold, sterile dH2 O and once with 5 ml dH2 O at room temperatures. Filters were placed in scintillation vials with 5 ml of Budget-Solve scintillation cocktail (Research Products International Corp., Mount Prospect, Ill.) and counted (liquid scintillation counter; LS-7000; Beckman Instruments, Inc., Fullerton, Calif.). The final concentration of the components in the uptake assay was 1% glucose, 40 mM sodium citrate-potassium phosphate buffer (pH 5.5), and 1.5×105 M L-leucyl-L-[^3 H]leucine (specific activity, 10 mCi/mmole). Uptake is expressed as nanomoles per mg dry weight.

A. thaliana seedlings [1] = assay: Root assay, toxic peptide plus competitor peptide; type: in vivo, Arabidopsis thaliana
Procedure: (§2) Approximately 15 A. thaliana seeds were placed in a row at one end of 10 cm plate containing 20 ml of Arabidopsis growth media (Kranz and Kirchheim 1987). The seeds were incubated 3-5 days in the light with the plate set in an upright position. When the roots were approximately 1-2 cm long, sterile paper filter disks were placed immediately in front of the root tips on the right and left side of the plate 2 cm from the edge of the plate. A line was drawn across the plate using the top of the disks as a guide marking zero growth. 5 μl of toxic amino acid analog, toxic peptide, or toxic peptide plus competitor was added to one disk while H2 O was place on the other disk. The plates were incubated for an additional 3-5 days. The average length of the roots was measured from the line and the results expressed as a percentage of control root growth.

[2] = target: T1, yeast peptide transport system (Saccharomyces cerevisiae, UniProt P32901); assay: Competition for L-leucyl-L-[3H]leucine uptake, PB1X-9B[pJP9]; type: cell-based; details: pH 5.5
T1 construct: The ptr2 gene encodes a 602 amino acid hydrophobic polypeptide with 12 putative hydrophobic segments; expressed in transfected cells; host or cells: S. cerevisiae peptide transport mutant PB1X-9B (ptr2-2) transformed with pJP9
T1 sequence (P32901 1-601): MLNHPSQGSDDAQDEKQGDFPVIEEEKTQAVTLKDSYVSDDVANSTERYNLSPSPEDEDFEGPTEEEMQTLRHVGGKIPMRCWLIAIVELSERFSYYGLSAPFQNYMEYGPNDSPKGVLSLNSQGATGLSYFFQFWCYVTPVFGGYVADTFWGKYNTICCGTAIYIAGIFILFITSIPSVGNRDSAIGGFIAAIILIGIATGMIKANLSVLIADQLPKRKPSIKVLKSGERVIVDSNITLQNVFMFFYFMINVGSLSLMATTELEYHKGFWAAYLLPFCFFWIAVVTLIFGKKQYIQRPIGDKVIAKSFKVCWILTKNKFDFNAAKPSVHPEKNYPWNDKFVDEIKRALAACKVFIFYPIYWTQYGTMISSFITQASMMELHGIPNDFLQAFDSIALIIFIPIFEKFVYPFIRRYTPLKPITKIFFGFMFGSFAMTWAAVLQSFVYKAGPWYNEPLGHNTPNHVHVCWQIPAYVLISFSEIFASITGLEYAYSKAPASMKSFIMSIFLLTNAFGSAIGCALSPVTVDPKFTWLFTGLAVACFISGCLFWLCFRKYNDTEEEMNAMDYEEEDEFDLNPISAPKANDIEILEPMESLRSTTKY
Procedure: as §1

PB1X-9B (pJP9) = assay: Toxic peptide disk assay, mutant with yeast peptide transport gene; type: cell-based, Saccharomyces cerevisiae; details: for diameter of zone of inhibition: disk with 0.38 μmoles, lawn of 5×10^6 cells, 30° C., 1 to 2 days, mean ± standard error
Procedure: (§3) Since ptr mutants are deficient in peptide transport, they are unable to take up toxic peptides. This inability renders such mutants resistant to the toxic effect of the peptides. In order to determine whether the polynucleotides of the present invention could restore toxic peptide sensitivity to ptr2 mutants, the sensitivity of plasmid-transformed cells was determined. Sensitivity to toxic amino acids and peptides was measured as described by Island, M. D. et al. (J. Bacteriol. 169:2132-2136 (1987)). Briefly, a filter disk containing 0.38 μmoles of the toxic compound was placed on a lawn containing 5×10^6 cells and the plate incubated at 30° C. for 1 to 2 days. Resulting halos were measured across their diameter. The toxic dipeptides Leu-Eth, Ala-Eth, Leu-F-Phe and Oxalysine were synthesized by standard solution phase techniques (Naider, F. et al., J. Biol. Chem. 249:9-20 (1974). The results of this experiment are shown in Table 2 (values are the mean of the diameters of the observed zone of inhibition in millimeters±standard error of the mean of at least two independent experiments).

A. thaliana seeds = assay: Seed germination with toxic peptides (minimum inhibitory concentration); type: in vivo, Arabidopsis thaliana
Procedure: (§4) Thus, A. thaliana seeds and seedlings were exposed to Ethionine, Ala-Eth, Leu-Eth, Leu-fluorophenylalanine or oxalysine containing peptides, and the minimum inhibitory concentrations (MIC) were determined for each of the toxic compounds.
To measure the minimum inhibitory concentration of the toxic peptides, 10 to 15 A. thaliara seeds were place on solid Arabidopsis growth media with decreasing concentrations of toxic peptide. The seeds were incubated for 4 days in the dark and then scored for germination.

S288C = assay: Toxic peptide disk assay, wild type; type: cell-based, Saccharomyces cerevisiae; details: for diameter of zone of inhibition: disk with 0.38 μmoles, lawn of 5×10^6 cells, 30° C., 1 to 2 days, mean ± standard error
Procedure: as §3

PB1X-9B = assay: Toxic peptide disk assay, peptide transport mutant; type: cell-based, Saccharomyces cerevisiae
Procedure: as §3

[3] = test system: S. cerevisiae strains tested; assay: Toxic peptide disk assay, statements covering several strains; type: cell-based, Saccharomyces cerevisiae; details: wild type (S288C) and transformants
Procedure: as §3

PB1X-9B (pPTF4) = assay: Toxic peptide disk assay, mutant with plant gene ATPTR2A; type: cell-based, Saccharomyces cerevisiae; details: for diameter of zone of inhibition: disk with 0.38 μmoles, lawn of 5×10^6 cells, 30° C., 1 to 2 days, mean ± standard error
Procedure: as §3

A. thaliana seedlings [4] = assay: Root elongation of seedlings exposed to toxic peptides; type: in vivo, Arabidopsis thaliana
Procedure: as §4, §2

PB1X-9B(pJP2) = assay: Dipeptide utilization, L-alanyl-L-ethionine sensitivity and dileucine transport of secondary transformants; type: cell-based, Saccharomyces cerevisiae; details: compared with wild type
Procedure: Plasmid pJP2 was then reintroduced into PB1X-9B. The resulting secondary yeast transformants were tested for the ability to use a variety of dipeptides as sources of amino acids and for sensitivity to the toxic dipeptide L-alanyl-L-ethionine. Thus, strains were grown in YEPG broth at 30° C. to a titer of 10^8 cells per ml. The cells were harvested by centrifugation, washed twice with sterile water and resuspended at 1.0×10^7 cells per ml. A 5-μl aliquot was applied to solid MM containing dipeptides and amino acids as required. Four types of solid media were routinely used in assessing dipeptide utilization: MM+L-leucyl-L-leucine-L-lysine+L-histidine, MM-L-lysI-L-lysine-L-leucine-L-histidine (SEQ ID NO:12), MM-L-lysl-L-leucine-L-histidine, and MM-L-histydyl-L-leucine-L-lysine. All dipeptides were present at a concentration of 80 μM, while amino acids and nucleotide bases were added as required at standard concentrations (Sherman, F. et al., In: Methods in Yeast Genetics, Cold Spring Harbor Laboratory, Clod Spring Harbor, N.Y. (1986)). The plates were incubated at 30° C. for 48 hours and then scored for growth.

Lys-Leu-Leu-Ala-Eth = target: T2, Lys-Leu-Leu-Ala-Eth; assay: cell-based or functional assay
T2 peptide: KLLA-Eth

Lys-Leu-Leu-Leu-Eth = target: T3, Lys-Leu-Leu-Leu-Eth; assay: cell-based or functional assay
T3 peptide: KLLL-Eth

tri-Ala: competitor tripeptide
competition for uptake of [3H]-dileucine (ATPTR2Ap): uptake competition similar to that seen for Leu-Leu | reversal of toxicity by competitor (in words) (A. thaliana seedlings [1]; toxic peptide Ala-Eth): unable to reverse the inhibition | root growth with toxic peptide plus competitor (A. thaliana seedlings [1]; toxic peptide Ala-Eth): 0 percentage of control root gro | reversal of toxicity by competitor (in words) (A. thaliana seedlings [1]; toxic peptide Leu-Eth): unable to reverse the inhibition | competition for uptake of [3H]-dileucine [2]: uptake competition similar to that seen for Leu-Leu

CCSCC[C@H](N)C(=O)O [Eth, ethionine]
diameter of zone of inhibition (PB1X-9B (pJP9)): 46.5 ± 1.5 millimeters | root length at which growth was arrested (A. thaliana seeds; seeds exposed to the toxic compound): 1-2 mm | diameter of zone of inhibition (S288C): 39.0 ± 3.0 millimeters | sensitivity or resistance to toxic compound (PB1X-9B): sensitive | diameter of zone of inhibition (PB1X-9B; disk with 0.38 μmoles, lawn of 5×10^6 cells, 30° C., 1 to 2 days, mean ± standard error): 44.5 ± 3.5 millimeters | sensitivity to toxic compound [3]: most sensitive | sensitivity or resistance to toxic compound (PB1X-9B (pPTF4)): sensitive | diameter of zone of inhibition (PB1X-9B (pPTF4)): 46.5 ± 0.5 millimeters

Leu-fluorophenylalanine [Leu-F-Phe]
appearance of halo (PB1X-9B (pJP9)): hazy background within the halo | diameter of zone of inhibition (PB1X-9B (pJP9)): 20.5 ± 3.0 millimeters | amount that inhibits germination of seeds (A. thaliana seeds; A. thaliana seeds): not inhibited | amount that inhibits root elongation of seedlings (A. thaliana seedlings [4]): not inhibited | appearance of halo (S288C): hazy background within the halo | diameter of zone of inhibition (S288C): 28.0 ± 4.0 millimeters | sensitivity to toxic compound [3]: less sensitive | sensitivity or resistance to toxic compound (PB1X-9B (pPTF4)): restores sensitivity | diameter of zone of inhibition (PB1X-9B (pPTF4)): 37.0 ± 1.0 millimeters | sensitivity or resistance to toxic compound (PB1X-9B (pPTF4); listed as leucine-fluorophenylaianine): greater and more complete sensitivity

NCC(=O)CCC(=O)O [ALA, γ-aminolevulinic acid]
competition for uptake of [3H]-dileucine (ATPTR2Ap): lack of inhibition | competition for uptake of [3H]-dileucine (ATPTR2Ap; listed as γ-aminolevulinic acid): did not compete | reversal of toxicity by competitor (in words) (A. thaliana seedlings [1]; toxic peptide Ala-Eth): unable to reverse the inhibition | root growth with toxic peptide plus competitor (A. thaliana seedlings [1]; toxic peptide Ala-Eth): 0 percentage of control root gro | reversal of toxicity by competitor (in words) (A. thaliana seedlings [1]; toxic peptide Leu-Eth): unable to reverse the inhibition | root growth with toxic peptide plus competitor (A. thaliana seedlings [1]; toxic peptide Leu-Eth): 0 percentage of control root gro | competition for uptake of [3H]-dileucine [2]: able to compete

L-leucyl-L [^3 H]leucine trifluoroacetic acid (TFA) [[H^3]-dileucine]
transport of radiolabeled dileucine (PB1X-9B(pJP2)): levels approximating those of the wild type | uptake of radiolabeled dileucine (ATPTR2Ap; listed as radiolabeled dileucine): comparable to that of wild type | uptake of radiolabeled dileucine (ATPTR2Ap): wild-type levels

B1: yeast peptide transporter SACPTR2p (other)
chain: T1 sequence (P32901 1-601)
diameter of the zone of inhibition, disk assay with 0.38 µmoles (Lys-Leu-Leu-Ala-Eth): 0 mm | diameter of the zone of inhibition, disk assay with 0.38 µmoles (Lys-Leu-Leu-Leu-Eth): 0 mm | diameter of the zone of inhibition, disk assay with 0.38 µmoles (Leu-F-Phe): 20.5 mm | diameter of the zone of inhibition, disk assay with 0.38 µmoles (Lys-Leu-Eth): 36 mm | diameter of the zone of inhibition, disk assay with 0.38 µmoles (Lys-Ala-Eth): 36 mm | diameter of the zone of inhibition, disk assay with 0.38 µmoles (Lys-Leu-Ala-Eth): 0 mm | diameter of the zone of inhibition, disk assay with 0.38 µmoles (Leu-Eth): 47 mm | diameter of the zone of inhibition, disk assay with 0.38 µmoles (L-alanyl-L-ethionine): 42.5 mm | diameter of the zone of inhibition, disk assay with 0.38 µmoles (Lys-Leu-Leu-Eth): 0 mm
